Experimental data from PubChem BioAssay AID330 (DTP/NCI, 2004).
Where “and” joins values, the source holds several entries; their conditions need not be identical. Equal values may be shown once. Inconclusive results and toxic doses are left out.

System: P388 leukemia ip, CD2F1 mice, survival T/C
Assay: NCI In Vivo Anticancer Drug Screen. Data for tumor model P388 Leukemia (intraperitoneal) in CD2F1 (CDF1) mice
Conditions: endpoint: median survival time, higher = longer survival
Summary of the method: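 Mice carrying the transplanted tumor received test compound or vehicle. Survival was recorded in each group, and the value is the treated-group measurement divided by that of the vehicle-treated control group.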

[1] = dose: 50.0 mg/kg/injection, schedule: Q01DX009 (ip), vehicle: Klucel (hydroxypropylcellulose) (HPC)
[2] = dose: 100.0 mg/kg/injection, schedule: Q01DX009 (ip), vehicle: Klucel (hydroxypropylcellulose) (HPC)
[3] = dose: 60.0 mg/kg/injection, schedule: Q01DX005 (ip), vehicle: Klucel (hydroxypropylcellulose) (HPC)
[4] = dose: 120.0 mg/kg/injection, schedule: Q01DX005 (ip), vehicle: Klucel (hydroxypropylcellulose) (HPC)
[5] = dose: 50.0 mg/kg/injection, schedule: Q01DX005 (ip), vehicle: saline with Tween-80
[6] = dose: 100.0 mg/kg/injection, schedule: Q01DX005 (ip), vehicle: saline with Tween-80
[7] = dose: 200.0 mg/kg/injection, schedule: Q01DX005 (ip), vehicle: saline with Tween-80
[8] = dose: 100.0 mg/kg/injection, schedule: Q01DX009 (ip), vehicle: saline with Tween-80
[9] = dose: 200.0 mg/kg/injection, schedule: Q01DX009 (ip), vehicle: saline with Tween-80

Question: Which T/C (dose: 0.78 mg/kg/injection, schedule: Q01DX009 (ip), vehicle: saline) does the source give for `O=NNc1ccccn1` here?
Answer: Its T/C is 106 % of control.

Question: What about the T/C (dose: 1.5 mg/kg/injection, schedule: Q01DX009 (ip), vehicle: saline) of the same molecule?
Answer: The T/C was 100 % of control.

Question: And the T/C (dose: 1.5 mg/kg/injection, schedule: Q01DX009 (ip), vehicle: water)?
Answer: Its T/C is 103 % of control.

Question: And the T/C (dose: 1.56 mg/kg/injection, schedule: Q01DX005 (ip), vehicle: water)?
Answer: Its T/C is 103 % of control and 106 % of control and 112 % of control.

Question: What about the T/C (dose: 1.56 mg/kg/injection, schedule: Q01DX009 (ip), vehicle: saline + alcohol) of the same molecule?
Answer: The T/C was 108 % of control.

Question: And the T/C (dose: 1.59 mg/kg/injection, schedule: Q01DX009 (ip), vehicle: water)?
Answer: The T/C was 119 % of control.

Question: What about the T/C (dose: 3.0 mg/kg/injection, schedule: Q01DX009 (ip), vehicle: saline) of the same molecule?
Answer: Its T/C is 118 % of control.

Question: What about the T/C (dose: 3.0 mg/kg/injection, schedule: Q01DX009 (ip), vehicle: water) of the same molecule?
Answer: The T/C was 121 % of control.

Question: And the T/C (dose: 3.12 mg/kg/injection, schedule: Q01DX009 (ip), vehicle: saline + alcohol)?
Answer: The T/C was 123 % of control.

Question: And the T/C (dose: 12.0 mg/kg/injection, schedule: Q01DX009 (ip), vehicle: water)?
Answer: Its T/C is 151 % of control and 163 % of control.

Question: What about the T/C (dose: 25.0 mg/kg/injection, schedule: Q01DX009 (ip), vehicle: saline + alcohol) of the same molecule?
Answer: The T/C was 175 % of control.

Question: What does the source list for `Cc1ccc2c(c1)sc1n[nH]c(=O)n12`?
Answer: T/C [1]: 100 % of control; T/C [2]: 105 % of control

Question: What does the source list for `CCOC(=O)c1cn(CC)c2c(ccc3cnccc32)c1=O`?
Answer: T/C [3]: 103 % of control; T/C [4]: 100 % of control; T/C (dose: 240.0 mg/kg/injection, schedule: Q01DX005 (ip), vehicle: Klucel (hydroxypropylcellulose) (HPC)): 98 % of control

Question: Which results are given for `FC1OC1(F)C12CC3CC(CC(C3)C1)C2` (stereo not given)?
Answer: T/C [1]: 106 % of control; T/C [2]: 106 % of control; T/C (dose: 200.0 mg/kg/injection, schedule: Q01DX009 (ip), vehicle: Klucel (hydroxypropylcellulose) (HPC)): 105 % of control

Question: How did the T/C (dose: 60.0 mg/kg/injection, schedule: Q01DX005 (ip), vehicle: saline with Tween-80) turn out when `COC(=O)/N=c1\cc(N2CC=CCC2)nc(N)n1O` was run?
Answer: The T/C was 94 % of control.

Question: What about the T/C (dose: 120.0 mg/kg/injection, schedule: Q01DX005 (ip), vehicle: saline with Tween-80) of the same molecule?
Answer: The T/C was 94 % of control.

Question: What about the T/C (dose: 240.0 mg/kg/injection, schedule: Q01DX005 (ip), vehicle: saline with Tween-80) of the same molecule?
Answer: The T/C was 91 % of control.

Question: `O=C(Nc1ccccc1)N1c2ccccc2SC1c1ccco1` (stereo not given) was tested. Which T/C [5] did it give?
Answer: The T/C was 101 % of control.

Question: And the T/C [6]?
Answer: Its T/C is 100 % of control.

Question: And the T/C [7]?
Answer: The T/C was 92 % of control.

Question: `O=C(CCCC(=O)Nc1ccc2c(=O)c3ccccc3[nH]c2c1)Nc1ccc2c(=O)c3ccccc3[nH]c2c1` was tested. Which T/C [5] did it give?
Answer: Its T/C is 98 % of control.

Question: What about the T/C [6] of the same molecule?
Answer: The T/C was 104 % of control.

Question: What about the T/C [7] of the same molecule?
Answer: The T/C was 100 % of control.

Question: `N=C(N)Sc1ccccn1` was tested. Which T/C (dose: 100.0 mg/kg/injection, schedule: Q01DX009 (ip), vehicle: saline) did it give?
Answer: Its T/C is 94 % of control.

Question: What about the T/C (dose: 200.0 mg/kg/injection, schedule: Q01DX009 (ip), vehicle: saline) of the same molecule?
Answer: The T/C was 101 % of control.

Question: For `C[n+]1cccc(C2(O)CCCC2)c1`, which T/C (dose: 50.0 mg/kg/injection, schedule: Q01DX009 (ip), vehicle: saline with Tween-80) is on record?
Answer: The T/C was 113 % of control.

Question: What about the T/C [8] of the same molecule?
Answer: The T/C was 104 % of control.

Question: What about the T/C [9] of the same molecule?
Answer: Its T/C is 99 % of control.

Question: How did the T/C (dose: 7.5 mg/kg/injection, schedule: Q01DX009 (ip), vehicle: saline with Tween-80) turn out when `O=C(O)C(CS(=O)(=O)O)S(=O)(=O)O` (stereo not given) was run?
Answer: Its T/C is 110 % of control.

Question: What about the T/C (dose: 15.0 mg/kg/injection, schedule: Q01DX009 (ip), vehicle: saline with Tween-80) of the same molecule?
Answer: Its T/C is 109 % of control.

Question: What about the T/C (dose: 30.0 mg/kg/injection, schedule: Q01DX009 (ip), vehicle: saline with Tween-80) of the same molecule?
Answer: Its T/C is 106 % of control.

Question: `COc1ccc(OC)c(C(/C=N/O)OC)c1` (stereo not given) was tested. Which T/C (dose: 25.0 mg/kg/injection, schedule: Q04DX003 (ip), vehicle: saline with Tween-80) did it give?
Answer: Its T/C is 98 % of control and 100 % of control.

Question: What about the T/C (dose: 50.0 mg/kg/injection, schedule: Q04DX003 (ip), vehicle: saline with Tween-80) of the same molecule?
Answer: The T/C was 98 % of control and 94 % of control.

Question: And the T/C (dose: 100.0 mg/kg/injection, schedule: Q04DX003 (ip), vehicle: saline with Tween-80)?
Answer: Its T/C is 99 % of control and 87 % of control.

Question: What about the T/C (dose: 200.0 mg/kg/injection, schedule: Q04DX003 (ip), vehicle: saline with Tween-80) of the same molecule?
Answer: Its T/C is 103 % of control and 94 % of control.

Question: What about the T/C (dose: 400.0 mg/kg/injection, schedule: Q04DX003 (ip), vehicle: saline with Tween-80) of the same molecule?
Answer: The T/C was 99 % of control.

Question: How did the T/C (dose: 12.5 mg/kg/injection, schedule: Q01DX005 (ip), vehicle: saline with Tween-80) turn out when `CN(C)CC1CCc2c(ccc3ccccc23)C1=O` (stereo not given) was run?
Answer: Its T/C is 100 % of control.

Question: What about the T/C (dose: 25.0 mg/kg/injection, schedule: Q01DX005 (ip), vehicle: saline with Tween-80) of the same molecule?
Answer: Its T/C is 103 % of control.

Question: And the T/C [5]?
Answer: The T/C was 100 % of control.

Question: And the T/C [6]?
Answer: The T/C was 104 % of control.

Question: Which T/C (dose: 2.5 mg/kg/injection, schedule: Q01DX009 (ip), vehicle: Klucel (hydroxypropylcellulose) (HPC)) does the source give for `COc1cc2c(c(OC)c1OC)-c1ccc(OC)c(=O)cc1C([N+](C)(C)C)CC2` (stereo not given) here?
Answer: Its T/C is 94 % of control.

Question: What about the T/C (dose: 5.0 mg/kg/injection, schedule: Q01DX009 (ip), vehicle: Klucel (hydroxypropylcellulose) (HPC)) of the same molecule?
Answer: Its T/C is 100 % of control.

Question: And the T/C (dose: 10.0 mg/kg/injection, schedule: Q01DX009 (ip), vehicle: Klucel (hydroxypropylcellulose) (HPC))?
Answer: Its T/C is 103 % of control.

Question: What about the T/C (dose: 20.0 mg/kg/injection, schedule: Q01DX009 (ip), vehicle: Klucel (hydroxypropylcellulose) (HPC)) of the same molecule?
Answer: The T/C was 100 % of control.

Question: `O=C(N/C(=C\c1ccccc1)C(=O)N1CCN(c2ccccc2)CC1)c1ccccc1` was tested. Which T/C [5] did it give?
Answer: Its T/C is 98 % of control.

Question: And the T/C [6]?
Answer: Its T/C is 98 % of control.

Question: And the T/C [7]?
Answer: Its T/C is 86 % of control.

Question: What does the source list for `CC1(C)C=C(Cc2ccccc2)C(=O)c2ccccc21`?
Answer: T/C [8]: 90 % of control; T/C [9]: 100 % of control; T/C (dose: 400.0 mg/kg/injection, schedule: Q01DX009 (ip), vehicle: saline with Tween-80): 95 % of control

Question: Which T/C [3] does the source give for `FC(F)(F)c1ccc(-c2nn[nH]n2)cc1` here?
Answer: Its T/C is 107 % of control.

Question: And the T/C [4]?
Answer: The T/C was 101 % of control.

Question: How did the T/C [5] turn out when `COC(=O)C(C)(OCc1ccccc1)C(C)C1CO1` (stereo not given) was run?
Answer: The T/C was 100 % of control.

Question: What about the T/C [6] of the same molecule?
Answer: The T/C was 115 % of control.

Question: And the T/C [7]?
Answer: Its T/C is 113 % of control.
